Test systems include 786-0 renal; A498 renal; A549 NSCLC; COLO 205 colon; HCT-15 colon; HOP-92 NSCLC; HS 578T breast; IGROV1 ovarian; MALME-3M melanoma; MCF7 breast; MDA-MB-231 breast; OVCAR-5 ovarian; OVCAR-8 ovarian; RXF 393 renal; SF-268 CNS; SK-MEL-28 melanoma; SN12C renal; SNB-19 CNS; SNB-75 CNS; UACC-257 melanoma.
What all share (assay): NCI tumour cell line growth inhibition, 48 h

The structures appear in SMILES notation.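 Values below derive from 48-hour exposures of cells grown in 96-well plates, with endpoints linearly interpolated between the two concentrations bracketing the appropriate inhibition level. TGI is the concentration that stops growth completely.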

For the molecule `Nc1nc(NCC2(CO)CCC2)cc(=O)[nH]1`, the TGI with 786-0 renal, with A498 renal, with A549 NSCLC, with COLO 205 colon, in the assay on HCT-15 colon and in the assay on HOP-92 NSCLC was above 100 µM in each case. Further, the TGI with HS 578T breast, in the assay on IGROV1 ovarian, in the assay on MALME-3M melanoma, with MCF7 breast, in the assay on MDA-MB-231 breast and in the assay with OVCAR-5 ovarian was above 100 µM in each case. Besides, the TGI with OVCAR-8 ovarian, in the assay with RXF 393 renal, with SF-268 CNS, in the assay with SK-MEL-28 melanoma, with SN12C renal and in the assay with SNB-19 CNS was above 100 µM each time. For the same molecule, the TGI with SNB-75 CNS and in the assay with UACC-257 melanoma was above 100 µM each time.

As to `Cn1c2ccccc2n2c3ccccc3c(=O)c(C#N)c12`, the TGI is above 59.9 µM in the assay with 786-0 renal; above 75.8 µM with A498 renal; above 100 µM in the assay with A549 NSCLC; above 100 µM in the assay with COLO 205 colon; above 100 µM in the assay on HCT-15 colon; above 76.7 µM in the assay with HOP-92 NSCLC. In addition, the TGI in the assay with HS 578T breast was 66.7 µM; in the assay with IGROV1 ovarian, above 87 µM; in the assay on MALME-3M melanoma it was 49.9 µM; in the assay with MCF7 breast, above 100 µM; with MDA-MB-231 breast, 41.9 µM; with OVCAR-5 ovarian it was above 100 µM. Further, the TGI in the assay with OVCAR-8 ovarian was above 44.5 µM; in the assay with RXF 393 renal, above 100 µM; in the assay with SF-268 CNS it was above 100 µM; in the assay with SK-MEL-28 melanoma, above 100 µM; with SN12C renal, above 100 µM; with SNB-19 CNS it was above 100 µM. Further, the results for the TGI in the assay with SNB-75 CNS and with UACC-257 melanoma were above 96.6 µM and above 100 µM, respectively.

Take `COC(=O)c1ccccc1C1CN=NC12Cc1cc(C)c(C)cc1C2=O` (stereo not given): the TGI with 786-0 renal was above 100 µM; in the assay on A498 renal it was above 100 µM; in the assay with A549 NSCLC, above 100 µM; in the assay with COLO 205 colon, above 100 µM; in the assay on HCT-15 colon it was above 100 µM; in the assay on HOP-92 NSCLC, 78.9 µM. Further, the TGI in the assay on HS 578T breast was above 100 µM; in the assay with IGROV1 ovarian, above 100 µM; in the assay with MALME-3M melanoma, above 100 µM; with MCF7 breast, 65 µM; with MDA-MB-231 breast, above 100 µM; in the assay with OVCAR-5 ovarian it was above 100 µM. Moreover, the TGI with OVCAR-8 ovarian, in the assay on RXF 393 renal, in the assay with SF-268 CNS, with SK-MEL-28 melanoma, with SN12C renal and with SNB-19 CNS was above 100 µM in each case. Also, the values for the TGI in the assay on SNB-75 CNS and in the assay with UACC-257 melanoma were above 100 µM and 44.9 µM, respectively.

In the case of `CC(/C=N\NC(=S)N(C)C)=N/NC(=S)N(C)C`, the TGI in the assay on 786-0 renal is above 59.8 µM; in the assay on A498 renal it was 20.1 µM; with A549 NSCLC, above 100 µM; in the assay with COLO 205 colon, 33.7 µM; in the assay with HCT-15 colon it was above 54.3 µM; in the assay with HOP-92 NSCLC, 31.2 µM. The TGI in the assay on HS 578T breast is 52.8 µM; with IGROV1 ovarian, 16.9 µM; in the assay with MALME-3M melanoma it was above 34.2 µM; in the assay with MCF7 breast, above 100 µM; in the assay on MDA-MB-231 breast, above 100 µM; in the assay on OVCAR-5 ovarian, above 100 µM. Moreover, the TGI in the assay with OVCAR-8 ovarian was above 100 µM; in the assay with RXF 393 renal, 2.58 µM; with SF-268 CNS, above 29.3 µM; in the assay on SK-MEL-28 melanoma, above 100 µM; in the assay with SN12C renal, above 100 µM; with SNB-19 CNS, above 100 µM. For the same molecule, the TGI in the assay on SNB-75 CNS and in the assay on UACC-257 melanoma was above 100 µM throughout.

Turning to `CCCCCCCCCCCCCCCC(=O)OC(COC(C)=O)CO[P+](=O)O` (stereo not given), the TGI in the assay with 786-0 renal was 38.9 µM; in the assay with A498 renal it was above 100 µM; in the assay with A549 NSCLC, 36.5 µM; in the assay on COLO 205 colon it was above 100 µM; in the assay with HCT-15 colon it was 43.8 µM; with HOP-92 NSCLC it was 34 µM. In addition, the TGI with HS 578T breast is 36.6 µM; with IGROV1 ovarian, 59.6 µM; in the assay on MALME-3M melanoma it was above 100 µM; with MCF7 breast, above 100 µM; in the assay on MDA-MB-231 breast, 50.5 µM; with OVCAR-5 ovarian it was 38.6 µM. In addition, the TGI in the assay on OVCAR-8 ovarian is 44.4 µM; with RXF 393 renal it was above 100 µM; in the assay with SF-268 CNS, 49.6 µM; with SK-MEL-28 melanoma, above 100 µM; in the assay with SN12C renal it was above 100 µM; with SNB-19 CNS it was above 100 µM. Further, the TGI in the assay on SNB-75 CNS is 94 µM; with UACC-257 melanoma it was above 100 µM.

`Cc1sc(N)c(S(=O)(=O)c2ccccc2)c1C`: the TGI in the assay with 786-0 renal, with A498 renal, with A549 NSCLC, with COLO 205 colon, in the assay on HCT-15 colon and with HOP-92 NSCLC was above 100 µM each time. For the same molecule, the TGI in the assay with HS 578T breast, in the assay on IGROV1 ovarian, with MALME-3M melanoma, with MCF7 breast, in the assay on MDA-MB-231 breast and in the assay on OVCAR-5 ovarian was above 100 µM each time. In addition, the TGI with OVCAR-8 ovarian, with RXF 393 renal, in the assay on SF-268 CNS, in the assay on SK-MEL-28 melanoma, in the assay on SN12C renal and in the assay with SNB-19 CNS was above 100 µM throughout. The TGI in the assay with SNB-75 CNS and in the assay with UACC-257 melanoma was above 100 µM each time.

With `O=S(=O)(NC1OCCCC1I)c1ccccc1` (stereo not given), the TGI with 786-0 renal, in the assay with A498 renal, in the assay with A549 NSCLC, in the assay on COLO 205 colon, in the assay with HCT-15 colon and with HOP-92 NSCLC was above 100 µM throughout. The TGI in the assay with HS 578T breast, in the assay on IGROV1 ovarian, with MALME-3M melanoma, with MCF7 breast, in the assay on MDA-MB-231 breast and in the assay on OVCAR-5 ovarian was above 100 µM throughout. Besides, the TGI in the assay with OVCAR-8 ovarian, in the assay on RXF 393 renal, in the assay on SF-268 CNS, in the assay with SK-MEL-28 melanoma, with SN12C renal and with SNB-19 CNS was above 100 µM throughout. Further, the TGI with SNB-75 CNS and with UACC-257 melanoma was above 100 µM in each case.

Values taken from PubChem BioAssay (NCI).
